From patent US6649394B1, “Topoisomerase IV, corresponding nucleotide sequences and uses thereof” (priority 1997, dated 2003)

How the values were obtained:
[1] = target: T1, wild-type GrlAB protein (DNA topoisomerase IV) of S. aureus (Staphylococcus aureus, UniProt P0C1S7+P0C1U9); experiment: Decatenation of kinetoplast DNA by purified wild-type GrlAB protein; type: biochemical
T1 construct: made in house; host or cells: E. coli XL1-Blue (pXL2340 for GrlA, pXL2320 for GrlB; pRSETB vector, T7 promoter)
Procedure: (§1) The ATP-dependent activity of decatenation of intertwined circular DNA molecules (catenanes) can be detected by carrying out the procedure, for example, in the following manner: a mixture of an extract of the E. coli strain XL1-blue pXL2320 (2.5 μg of proteins) and of an extract of the E. coli strain XL1-blue pXL2340 (2.5 μg of proteins) is incubated for 1 h at 37° C. in 40 μl of 50 mM Tris/HCl buffer pH 7.7 containing 1 mM ATP, 6 mM MgCl2, 200 mM glutamate, 10 mM DTT, 10 mM NaCl, 50 μg/ml of bovine serum albumin and 800 ng of kinetoplast DNA [consisting of a network of intertwined DNA molecules (catenanes) obtained from Crithidia fasciculata; TopoGene]. The reaction is stopped by adding 7 μl of a 250 mM EDTA solution (incubation 5 min at 37° C.), 5 μl of a 5% SDS and 2.5 mg/ml proteinase K mixture (incubation 30 min at 37° C.). The mixture is then analysed by electrophoresis on a 1% agarose gel in a 0.1 M Tris/borate buffer pH 8.3 containing 2 mM EDTA at 6 V/cm for 2 h 30 min. After staining the DNA with ethidium bromide (1 μg/ml), the DNA is quantified by scanning the negatives of photographs of the gels (Polaroid type 665 film) with the aid of a Bioimage 50S apparatus (Millipore). […] This activity is detected by the appearance of a DNA band with a size of about 2.5 kb and by the disappearance of the band of catenated DNA of very large size which penetrates very little into the gel during the electrophoretic run (FIG. 5).
(§2) To carry out the experiments described in the examples which follow, the incubations are carried out with the purified wild-type GrlAB proteins as described in Example 7, and with the mutant protein GrlA(Ser-80→Tyr)B as described in Example 8. The two wild-type and mutant GrlAB proteins are reconstituted by mixing equimolar quantities of their two GrlA and GrlB subunits.

[2] = target: T2, mutant protein GrlA(Ser-80→Tyr)B (DNA topoisomerase IV) of S. aureus (Staphylococcus aureus, UniProt P0C1S7+P0C1U9, F80Y); experiment: biochemical
T2 construct: made in house; host or cells: E. coli XL1-Blue (pXL2742 for GrlA Ser-80→Tyr, pXL2320 for GrlB)
Procedure: as §1
(§3) The ATP-dependent activities of supercoiled DNA relaxation, on the one hand, and of decatenation of intertwined circular DNA molecules, on the other hand, are detected in this extract as described in Example 7, by incubating, in the same reaction mixture, an acellular extract of the E. coli strain XL1-Blue pXL2742 containing the protein GrlA(Ser-80→Tyr) and an extract of the E. coli strain XL1-Blue pXL2320 containing the GrlB protein.
as §2

[3] = test system: mutant protein GrlA(Ser-80→Tyr)B (DNA topoisomerase IV) of S. aureus; experiment: biochemical; parameters: species or system Staphylococcus aureus; conditions: GrlA(Ser-80→Tyr)B versus wild-type GrlAB
Procedure: as §1, §3, §2

| SMILES | IC50 [1] | IC50 [2] | concentration above which the activity of decatenation of kinetoplast DNA is completely inhibited ([1]; purified wild-type GrlAB enzyme) | concentration for 50% inhibition with mutant enzyme relative to wild-type enzyme [3] |
| --- | --- | --- | --- | --- |
| CC1COc2c(N3CCN(C)CC3)c(F)cc3c(=O)c(C(=O)O)cn1c23 (centres unmarked) [Ofloxacin] | 27.7 µM | 692 µM | – | – |
| O=C(O)c1cn(C2CC2)c2cc(N3CCNCC3)c(F)cc2c1=O [ciprofloxacin] | – | – | > 10 µg/mL | – |
| CO[C@@H]1[C@@H](OC(N)=O)[C@@H](O)[C@H](Oc2ccc3c(O)c(NC(=O)c4ccc(O)c(CC=C(C)C)c4)c(=O)oc3c2C)OC1(C)C [novobiocin] | ~49 µM | ~49 µM | – | – |
| C[C@@H]1CN(c2c(F)c(N)c3c(=O)c(C(=O)O)cn(C4CC4)c3c2F)C[C@H](C)N1 [sparfloxacin] | 15.3 µM | 1270 µM | – | 80 times |
